This is an account of results in publication PMC6668441, “Comparative Study of Subcutaneous and Orthotopic Mouse Models of Prostate Cancer: Vascular Perfusion, Vasculature Density, Hypoxic Burden and BB2r-Targeting Efficacy” (Scientific Reports, 2019).

For the assay, the target named is T1, BB2r (gastrin-releasing peptide receptor) (Homo sapiens, UniProt P30550).
T1 construct: host or cells: PC-3 human prostate cancer cells (whole cells in suspension)
The assay can be described thus: In vitro competitive cell-binding, displacement of [125I-Tyr4]-Bombesin on PC-3 cells. Particulars: PC-3 cells (~3×10^4), 4 °C, 40 min, RPMI 1640 pH 7.4, mean ± SEM (n = 6). On the procedure:
Data were presented as Mean ± SD/SEM as noted. […] In vitro stability studies of the radioconjugate in various buffers were analyzed by the two-tailed Student’s t-test. For comparison between the two models, analysis of the biodistribution studies, hypoxic burden and blood vessel density of tumor was carried out by a two-tailed Student’s t-test. Comparisons of the means of the BB2r-uptake, blood perfusion, hypoxic burden and blood vessel density of the tumors among the three tumor volume groups for each animal model were analyzed by one-way ANOVA. If the overall p-value was statistically significant, pairwise comparisons were adjusted using Tukey’s method. A p-value < 0.05 was considered statistically significant.
In Vitro Competitive Cell-Binding Studies […]
binding assays using PC-3 cells.
Establishment of Stably Transfected PC-3-Luc Cells
(firefly)-2A-GFP (Puro), AMSBIO) for transfection.
The medium was removed and replaced with 0.5 […]
and swirled to mix. […] Once the cells grew to confluence, they […]
1.5 mL of suspended cells in PBS at […]
to culture for in vitro and in vivo studies.
Cells were incubated at 37 °C
Development of PC-3 Xenograft SCID Mice
The tumor size was monitored during the growth by caliper measurement.
Development of PC-3 Orthotopic SCID mice […]
clips. […] The animals were monitored continuously for the following weeks. […]

Usually IC50 stands for the concentration needed to halve the response being measured.

T1 sequence (P30550 whole entry): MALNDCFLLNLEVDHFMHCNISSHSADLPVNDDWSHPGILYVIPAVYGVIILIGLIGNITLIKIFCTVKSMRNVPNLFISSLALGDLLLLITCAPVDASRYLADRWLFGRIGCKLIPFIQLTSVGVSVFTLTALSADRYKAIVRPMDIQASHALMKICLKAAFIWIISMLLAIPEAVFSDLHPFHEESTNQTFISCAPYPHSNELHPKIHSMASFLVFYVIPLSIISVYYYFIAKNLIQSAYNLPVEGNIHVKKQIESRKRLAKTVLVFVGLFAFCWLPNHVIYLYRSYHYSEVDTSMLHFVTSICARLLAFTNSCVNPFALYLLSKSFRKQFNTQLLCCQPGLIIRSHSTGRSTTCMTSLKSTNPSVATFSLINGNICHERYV

`CSCC[C@H](NC(=O)[C@H](CC(C)C)NC(=O)[C@H](Cc1c[nH]cn1)NC(=O)CNC(=O)[C@@H](NC(=O)[C@H](C)NC(=O)[C@H](Cc1c[nH]c2ccccc12)NC(=O)[C@H](CCC(N)=O)NC(=O)CCOCCOCCOCCOCCNC(=O)[C@@H](CO)NC(=O)[C@@H](CO)NC(=O)[C@@H](CO)NC(=O)[C@@H](CO)NC(=O)[C@@H](CO)NC(=O)CN1CCN(CC(=O)O)CCN(CC(=O)O)CCN(CC(=O)O)CC1)C(C)C)C(N)=O` [DOTA-SP714, DOTA-(D)S-(D)S-(D)S-(D)S-(D)S-PEG3–BBN(7–14)NH2]: the IC50 turned out to be 9.8 ± 1.7 nM.
